The source of these data is US20190110476A1, “NOVEL ISOTHIAZOLAMIDES, PROCESSES FOR THEIR PREPARATION AND THEIR USE AS FUNGICIDES” (priority 2014, published 2019).

Marks after values point to notes of the source that are not given here.

A short description of this data set: Measurement of LogP values by HPLC on reversed phase columns (EEC directive 79/831 Annex V.A8). It is filed as physicochemical. In outline: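 Following EEC directive 79/831 Annex V.A8, lipophilicity was derived from retention on reversed-phase HPLC columns. Separate values are given per diastereoisomer, and UV lambda-max (200–400 nm) was read at the peak signals.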
As for `Nc1nsc(C(=O)NCc2cccc(I)c2)c1Cl` [I-716], the LogP was 2.51[a].

For `Nc1cc(C(=O)N(Cc2ccc(Cl)cc2Cl)C2CC2)sn1` [I-967], the LogP was 2.90[a].

In the case of `COc1ccc(CNc2nsc(C(=O)NCc3cnccc3OC)c2Cl)cc1` [I-1330], the LogP was 1.49[a].

With `CCC1(C)CC(NC(=O)c2snc(NCc3ccc(OC)cc3)c2Cl)CC(C)(C)C1` (centres unmarked) [I-1254], the LogP is 5.72[a].

`Nc1nsc(C(=O)N(Cc2c(Cl)cccc2C(F)(F)F)C2CC2)c1Cl` [I-215]: the LogP is 3.19[a].

Take `O=C(NCC1CCCOC1)c1snc(Cl)c1Cl` (centres unmarked) [E-II-005]: the “LogP [a]” value is 2.18^[a].

Turning to `CC(C)(C)OC(=O)Nc1nsc(C(=O)NCC2CCCCC2Cl)c1Cl` (centres unmarked) [I-1578], the LogP is 3.52[a].

Consider `C[C@H](NC(=O)c1snc(NC(=O)C(F)F)c1Cl)C1CCCCC1` [I-522], for which the LogP is 3.06[a].

For the compound `CC1(C)CC1N(Cc1ccc(Cl)cc1Cl)C(=O)c1cc(N)ns1` (centres unmarked) [I-969], the LogP was 3.48[a].

Take `COc1ccc(CNc2nsc(C(=O)NC3CCCCc4ccccc43)c2Cl)cc1` (centres unmarked) [I-1334]: the LogP was 4.40[a].

With `Cc1c(N)nsc1C(=O)NCc1ccc(Cl)cc1F` [I-159], the LogP was 2.00[a].

As for `Cc1cccc2c1N(C(=O)c1snc(N)c1Cl)CCC2` [II-021], the “LogP [a]” value is listed as 2.43 and the “LogP [b]” value is 2.36.

Consider `COc1ccc(CNc2nsc(C(=O)NC3CC(C(F)(F)F)CC(C(F)(F)F)C3)c2Cl)cc1` (centres unmarked) [I-1218], for which the LogP is 4.30[a].

As for `Nc1nsc(C(=O)NC2(C3CCCCC3)CC2)c1Cl` [I-143], the LogP is 2.82[a].

As for `CCn1cc(CNC(=O)c2snc(NCc3ccc(OC)cc3)c2Cl)c(C(F)F)n1` [I-1198], the LogP was 3.09[a].

On to `Nc1nsc(C(=O)NCc2ccc(F)c(Oc3ccccc3)c2)c1Cl` [I-237], for which the LogP was 2.90[a].

`O=C(NCCc1ncc(C(F)(F)F)cc1Cl)c1snc(N(Cc2ccccc2)Cc2ccccc2)c1Br` [I-950]: the LogP was 5.97[a].

For `C#CCNc1nsc(C(=O)N[C@@H](C)C2CCCCC2)c1Cl` [I-062], the LogP is 3.56[a].

For the compound `Nc1nsc(C(=O)Nc2cccc3ccccc23)c1Cl` [I-927], the LogP was 2.39[a].

Turning to `COc1ccc(CNc2nsc(C(=O)NCc3nc(C)cs3)c2Cl)cc1` [I-1203], the LogP was 2.80[a].

As for `COc1ccc(CNc2nsc(C(=O)NCc3ccc(F)cc3C(F)(F)F)c2Cl)cc1` [I-220], the LogP is 4.18[a].

With `Cn1cc(CNC(=O)c2snc(N)c2Cl)cn1` [I-033], the LogP is 0.59[a].

For `COc1ccc(CNc2nsc(C(=O)OC(C)C)c2Cl)cc1` [E-VII-004], the “LogP [a]” value was 4.36^[a].

As to `COc1ccc(CNc2nsc(C(=O)NCc3cn(C4CCCC4)nc3C)c2Cl)cc1` [I-1339], the LogP was 3.23[a].

With `Nc1cc(C(=O)NCc2c(F)ccc(F)c2F)sn1` [I-165], the LogP was 1.51[a].

Regarding `CCC(C)CNC(=O)c1cc(N)ns1` (centres unmarked) [I-984], the LogP was 1.44[a].

For the compound `COc1ccc(CNc2nsc(C(=O)N(C3CC3)C3CCCCC3(C)C)c2Cl)cc1` (centres unmarked) [I-860], the LogP was 5.31[a].

`O=C(NCC1CCCCC1)c1snc(N=S(c2ccccc2)c2ccccc2)c1Cl` [II-092]: the “LogP [a]” value was 4.77^[a].

Take `O=C(O)CCNc1nsc(C(=O)NCC2CCCCC2)c1Cl` [I-721]: the LogP was 2.42[a].

For the compound `COc1ccc(CNC(=O)c2cc(N)ns2)c(F)c1` [I-171], the LogP was 1.48[a].

Consider `C=CCNc1nsc(C(=O)N[C@@H](C)C2CCCCC2)c1Cl` [I-066], for which the LogP was 4.02[a].

For the compound `C[C@H](NC(=O)c1snc(N=C(c2ccccc2)c2ccccc2)c1Cl)C1CCCCC1` [II-003], the “LogP [a]” value is 5.93^[a].

`CC(C)(NC(=O)c1snc(Cl)c1Cl)C1CCCCC1` [E-II-013]: the “LogP [a]” value is 5.39^[a].

On to `Nc1cc(C(=O)NCc2cc(F)ccc2F)sn1` [I-030], for which the LogP is 1.49[a].
